Data set [1] concerns the target T1, human VEGF-R2 receptor (KDR) (Homo sapiens, UniProt P35968).
T1 construct: expressed in transfected cells
The experiment in a line: Inhibition of VEGF-induced VEGF-R2 (KDR) autophosphorylation in transfected CHO cells, sandwich ELISA. It is filed as cell-based. As to conditions: % inhibition at 10 μM. On the procedure:
The inhibition of VEGF-induced receptor autophosphorylation can be confirmed with a further in vitro experiments in cells such as transfected CHO cells, which permanently express human VEGF-R2 receptor (KDR), are seeded in complete culture medium (with 10% fetal calf serum=FCS) in 6-well cell-culture plates and incubated at 37° C. under 5% CO2 until they show about 80% confluency. The compounds to be tested are then diluted in culture medium (without FCS, with 0.1% bovine serum albumin) and added to the cells. (Controls comprise medium without test compounds). After two hours of incubation at 37° C., recombinant VEGF is added; the final VEGF concentration is 20 ng/ml. After a further five minutes incubation at 37° C., the cells are washed twice with ice-cold PBS (phosphate-buffered saline) and immediately lysed in 100 μl lysis buffer per well. The lysates are then centrifuged to remove the cell nuclei, and the protein concentrations of the supernatants are determined using a commercial protein assay (BIORAD). The lysates can then either be immediately used or, if necessary, stored at −20° C.
The plates are then washed and the remaining free protein-binding sites are saturated with 3% TopBlock® (Juro, Cat. # TB232010) in phosphate buffered saline with Tween 20® (polyoxyethylen(20)sorbitane monolaurate, ICI/Uniquema) (PBST). The cell lysates (20 μg protein per well) are then incubated in these plates overnight at 4° C. together with an antiphosphotyrosine antibody coupled with alkaline phosphatase (PY20:AP from Zymed). […] The luminescence is measured in a Packard Top Count Microplate Scintillation Counter. The difference between the signal of the positive control (stimulated with VEGF) and that of the negative control (not stimulated with VEGF) corresponds to VEGF-induced VEGF-R2 phosphorylation (=100%). The activity of the tested substances is calculated as percent inhibition of VEGF-induced VEGF-R2 phosphorylation, wherein the concentration of substance that induces half the maximum inhibition is defined as the IC50 (inhibitory dose for 50% inhibition). […]
For orientation: An ELISA detects its analyte on a solid surface through an enzyme-linked reagent.

Data set [2] addresses T2, c-Abl kinase (His-tagged kinase domain of c-Abl) (Homo sapiens, UniProt P00519).
T2 construct: The His-tagged kinase domain of c-Abl is cloned and expressed in the baculovirus/Sf9 system; His tag; made in house; host or cells: Sf9 insect cells (baculovirus)
T2 sequence (P00519 242-493 limits assumed): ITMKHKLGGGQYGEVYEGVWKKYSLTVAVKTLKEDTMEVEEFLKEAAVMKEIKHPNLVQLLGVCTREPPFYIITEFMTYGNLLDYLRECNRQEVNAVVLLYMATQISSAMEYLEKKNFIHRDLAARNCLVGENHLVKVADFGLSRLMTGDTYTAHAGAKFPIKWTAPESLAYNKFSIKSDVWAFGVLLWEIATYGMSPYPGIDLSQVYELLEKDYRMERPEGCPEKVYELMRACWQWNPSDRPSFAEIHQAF
The experiment in a line: c-Abl protein-tyrosine kinase in vitro enzyme filter binding assay. It is filed as biochemical. As to conditions: % inhibition at 10 μM. On the procedure:
An in vitro enzyme assay is performed in 96-well plates as a filter binding assay as described by Geissler et al. in Cancer Res. 1992; 52:4492-4498, with the following modifications. The His-tagged kinase domain of c-Abl is cloned and expressed in the baculovirus/Sf9 system as described by Bhat et al. in J. Biol. Chem. 1997; 272:16170-16175. A protein of 37 kD (c-Abl kinase) is purified by a two-step procedure over a Cobalt metal chelate column followed by an anion exchange column with a yield of 1-2 mg/L of Sf9 cells (Bhat et al., reference cited). The purity of the c-Abl kinase is >90% as judged by SDS-PAGE after Coomassie blue staining. The assay contains (total volume of 30 μL): c-Abl kinase (50 ng), 20 mM Tris·HCl, pH 7.5, 10 mM MgCl2, 10 μM Na3VO4, 1 mM DTT and 0.06 μCi/assay [γ^33 P]-ATP (5 μM ATP) using 30 μg/mL poly-Ala,Glu,Lys,Tyr-6:2:5:1 (Poly-AEKY, Sigma P1152) in the presence of 1% DMSO. Reactions are terminated by adding 10 μL of 250 mM EDTA and 30 μL of the reaction mixture is transferred onto Immobilon-PVDF membrane (Millipore, Bedford, Mass., USA) previously soaked for 5 min with methanol, rinsed with water, then soaked for 5 min with 0.5% H3PO4 and mounted on vacuum manifold with disconnected vacuum source. After spotting all samples, vacuum is connected and each well rinsed with 200 μL 0.5% H3PO4. Membranes are removed and washed on a shaker with 0.5% H3PO4 (4 times) and once with ethanol. Membranes are counted after drying at ambient temperature, mounting in Packard TopCount 96-well frame, and addition of 10 μL/well of Microscint™ (Packard).
Enzymatic (c-Abl, KDR, Flt3) data are given on Table 17 (% inhibition at 10 μM). (Measurements are made as described above in the general description).

T1 sequence (P35968 20-1356): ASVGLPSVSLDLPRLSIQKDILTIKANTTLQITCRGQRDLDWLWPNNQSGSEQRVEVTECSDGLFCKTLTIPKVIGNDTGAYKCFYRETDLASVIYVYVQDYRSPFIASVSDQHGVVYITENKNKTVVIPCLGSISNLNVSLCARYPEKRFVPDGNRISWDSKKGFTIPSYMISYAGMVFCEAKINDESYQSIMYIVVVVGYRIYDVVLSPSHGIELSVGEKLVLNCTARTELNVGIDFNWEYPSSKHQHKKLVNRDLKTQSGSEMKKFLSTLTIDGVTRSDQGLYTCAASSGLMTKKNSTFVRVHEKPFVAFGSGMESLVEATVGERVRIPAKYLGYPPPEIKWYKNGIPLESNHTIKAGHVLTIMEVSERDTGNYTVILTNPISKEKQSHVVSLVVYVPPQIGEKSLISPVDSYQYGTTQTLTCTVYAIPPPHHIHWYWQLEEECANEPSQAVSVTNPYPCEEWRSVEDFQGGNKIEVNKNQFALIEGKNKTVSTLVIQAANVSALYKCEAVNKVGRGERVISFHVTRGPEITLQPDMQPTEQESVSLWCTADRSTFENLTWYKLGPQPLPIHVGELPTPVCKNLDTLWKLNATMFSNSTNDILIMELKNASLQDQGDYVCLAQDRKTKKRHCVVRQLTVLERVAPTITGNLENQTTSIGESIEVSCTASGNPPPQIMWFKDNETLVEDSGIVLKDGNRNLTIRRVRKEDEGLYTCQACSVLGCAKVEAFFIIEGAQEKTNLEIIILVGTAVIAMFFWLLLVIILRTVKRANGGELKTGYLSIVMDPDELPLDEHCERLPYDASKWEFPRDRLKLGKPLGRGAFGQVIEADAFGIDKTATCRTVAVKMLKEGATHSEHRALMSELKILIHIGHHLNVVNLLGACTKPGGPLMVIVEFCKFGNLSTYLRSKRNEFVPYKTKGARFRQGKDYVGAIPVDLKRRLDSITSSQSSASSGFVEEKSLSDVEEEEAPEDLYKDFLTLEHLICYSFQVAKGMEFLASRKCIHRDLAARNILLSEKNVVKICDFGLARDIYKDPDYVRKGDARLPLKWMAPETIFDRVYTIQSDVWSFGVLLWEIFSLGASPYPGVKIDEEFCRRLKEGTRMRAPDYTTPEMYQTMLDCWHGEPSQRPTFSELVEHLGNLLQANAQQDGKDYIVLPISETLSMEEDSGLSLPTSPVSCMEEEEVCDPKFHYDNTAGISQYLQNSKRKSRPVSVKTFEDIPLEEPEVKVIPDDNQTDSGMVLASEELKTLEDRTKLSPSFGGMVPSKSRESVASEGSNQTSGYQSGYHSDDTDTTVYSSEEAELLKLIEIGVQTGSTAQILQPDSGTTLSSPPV

On to `CCc1ccc(NC(=O)Nc2ccc(Oc3ccncc3)cc2)cc1` [Example 1, N-(4-pyridin-4-yl-oxy-phenyl)-N′-(4-ethyl-phenyl)-urea], for which the melting point is 166.5 to 168 °C. The “KDR trans (% at 10 μM)” value in data set [1] is recorded as 100%. Besides, the “c-Abl (% at 10 μM)” value in data set [2] is given as 62%.

As to `O=C(Nc1ccc(Oc2ccncc2)cc1)Nc1cccc(C(F)(F)F)c1` [Example 2], the “KDR trans (% at 10 μM)” value in data set [1] is 99%. For the same molecule, the “c-Abl (% at 10 μM)” value in data set [2] worked out at 84%.

In the case of `CCCc1ccc(NC(=O)Nc2ccc(Oc3ccncc3)cc2)cc1` [Example 3], the “KDR trans (% at 10 μM)” value in data set [1] stood at 25%. In addition, the “c-Abl (% at 10 μM)” value in data set [2] worked out at 58%.

For the molecule `O=C(Nc1ccc(Oc2cc(Nc3ccc(O)cc3)ncn2)cc1)Nc1cccc(C(F)(F)F)c1` [Example 22, N-(4-(4-(4-hydroxyphenylamino)-pyrimidin-6-yl)-oxyphenyl)-N′-(3-trifluoromethylphenyl)-urea], the melting point is 142 °C (dec.).

Turning to `COc1cc(NC(=O)Nc2ccc(Oc3ccncc3)cc2)cc(C(F)(F)F)c1` [Example 37, 1-(3-Methoxy-5-trifluoromethyl-phenyl)-3-[4-(pyridin-4-yloxy)-phenyl]-urea], the melting point was 162.5 to 164.5 °C.

As to `CCN(CC)c1ccc(NC(=O)Nc2ccc(Oc3ccncc3)cc2)cc1C(F)(F)F` [Example 39], the melting point was 60 °C (dec.).

Regarding `Cc1ccc(NC(=O)Nc2ccc(Oc3ccncc3)cc2)cc1C(F)(F)F` [Example 43, 1-(4-Methyl-3-trifluoromethyl-phenyl)-3-[4-(pyridin-4-yloxy)-phenyl]-urea], the melting point was 149 °C (dec.).

Turning to `CNc1cc(Oc2ccc(NC(=O)Nc3ccc(C)c(C(F)(F)F)c3)cc2)ncn1` [Example 67], the melting point is 202 to 203 °C (dec.).

With `Cc1ccc(NC(=O)Nc2ccc(Oc3cc(Cl)ncn3)cc2)cc1C(F)(F)F` [Example 76, 1-[4-(6-Chloro-pyrimidin-4-yloxy)-phenyl]-3-(4-methyl-3-trifluoromethyl-phenyl)-urea], the melting point is 183 to 184.5 °C.

`Cc1ccc(NC(=O)Nc2ccc(Oc3cc(Cl)ncn3)cc2)cc1` [Example 97, 1-[4-(6-Chloro-pyrimidin-4-yloxy)-phenyl]-3-p-tolyl-urea]: the melting point fell in the range of 217 to 219 °C.

Consider `CCc1cc(Oc2ccc(NC(=O)Nc3ccc(C)cc3)cc2)ncn1` [Example 99, 1-[4-(6-Ethyl-pyrimidin-4-yloxy)phenyl]-3-p-tolyl-urea], for which the melting point lay in the range of 160 to 162 °C.

Consider `CCN1CCN(Cc2cc(NC(=O)Nc3ccc(Oc4cc(Cl)ncn4)cc3)cc(C(F)(F)F)c2)CC1` [Example 134, N-(4-(6-Chloropyrimidin-4-yl-oxy)-phenyl)-N′-{5-trifluoromethyl-3-[(4-ethylpiperazin-1-ylmethyl)]-phenyl}-urea], for which the melting point was 168 to 169 °C.

Molecule `CN(C)Cc1cc(NC(=O)Nc2ccc(Oc3cc(Cl)ncn3)cc2)cc(C(F)(F)F)c1` [Example 135, N-(4-(6-Chloropyrimidin-4-yl-oxy)-phenyl)-N′-[5-trifluoromethyl-3-(dimethylamino-methyl)-phenyl]-urea] displayed a melting point of 154 °C.

`O=C(Nc1cccc(C(F)(F)F)c1)N1CCc2cc(Oc3cc(Cl)ncn3)ccc21` [Example 163, 5-(6-Chloro-pyrimidin-4-yloxy)-2,3-dihydro-indole-1-carboxylic acid (3-trifluoromethyl-phenyl)-amide] gave a melting point of 181 °C.

In general, melting point refers to the temperature, or range, at which the solid turns liquid.

Source of the values: patent US7652022B2, “Diaryl urea derivatives useful for the treatment of protein kinase dependent diseases” (Novartis AG, priority 2002, dated 2010).
